Results on 2 molecules are retold here after patent publication US20210114973A1, “PHARMACEUTICAL FORMULATIONS” (First Wave Bio, Inc., priority 2019, published 2021).

For data set [1] the following is noted: cited from earlier work.
Data set [2] can be described thus: Effect of particle size on colonic exposure levels: single rectal dose of niclosamide suspension, blood and rectal mucosa samples. As to conditions: rabbit; for plasma concentration of niclosamide (maximum measured): rectal administration, 1 hour (time point of maximum plasma concentration).
Experimental: These preparations of niclosamide were formulated into a suspension. Rabbits were treated with a single dose of these niclosamide suspensions at the dose levels specified. Following dosing, blood samples and rectal mucosa samples were obtained at indicated time points.

Take `O=C(Nc1ccc([N+](=O)[O-])cc1Cl)c1cc(Cl)ccc1O` [Niclosamide, 5-chloro-N-(2-chloro-4-nitrophenyl)-2-hydroxybenzamide]: the solubility in acetone entry in data set [1] (acetone) was “soluble”. Further, in data set [1] (ether, ethanol and chloroform), the “solubility in ether, ethanol and chloroform” value was “sparingly soluble”. Also, the water solubility in data set [1] (water, 20° C.) is 5 to 8 µg/mL.

In turn, `O=C(Nc1ccc([N+](=O)[O-])cc1Cl)c1cc(Cl)ccc1O` [milled niclosamide, 5-chloro-N-(2-chloro-4-nitrophenyl)-2-hydroxybenzamide] had a concentration at 1 hour in data set [2] (colon tissue, other: rectal, 22.5 mg) of 6090 ng/mL. In addition, the “plasma concentration of niclosamide (maximum measured)” value in data set [2] (7.5 mg single dose) was determined as 6.576; in data set [2] (22.5 mg single dose), 20.24.
